Results taken from patent US20240181015A1, “EFFECT OF GHRH ANTAGONISTS IN DIABETES AND OBESITY” (AUGUSTA UNIVERSITY RESEARCH INSTITUTE, INC., priority 2021, published 2024).
Ends that are not written are not given here.

Experiments:
[1] = test system: wild type mice fed on high fat diet (HFD); experiment: Postprandial triglyceride plasma levels after oral lipid loading in high fat diet fed mice; type: in vivo; conditions: HFD 16 weeks, 25 μg/kg/day subcutaneous every other day for last 4 weeks, up to 2 hours after oral lipid loading
Text: Both 8-week old wild type mice with intact ghrhr gene, and ghrhr conditional knock out mice were fed a high fat or control diet for 16 weeks. The effect of selective deletion of the ghrhr gene in the small intestine versus the effect of the GHRH antagonist AVR-352 or vehicle treatment for the last 4 weeks in wild type mice when both groups were fed a high fat diet, on fasting and postprandial triglyceride plasma levels were compared. The Ghrhr floxed mice using embryonic ES Cells was generated (International Mouse Phenotyping Consortium—IMPC). The ES cell clones were targeted with a floxed allele of Ghrhr with exons 2-5 flanked by loxP sites, and were injected into C57BL/6-Albino blastocysts for chimera production and generation of Ghrhr flox/wt mice (Animal Models Core, UNC, Project ID: Ex231). The colony was expanded and obtained the homozygous Ghrhr flox/flox mice, which were cross bred with mice expressing Cre recombinase in the small intestine (B6.Cg-Tg(Vil1-cre) 1000 Gum/J, Jackson Laboratories). Recombinase activity results in the deletion of loxP flanked targets in the intestine.
Mice with the deletion of GHRH receptor in small intestine epithelium (HOMO) were fed on high fat diet (HFD) or control diet (Ctrl diet) for 16 weeks. AVR-352 (25 μg/kg/day, subcutaneous, every other day), was given to wild type mice after 12 weeks of high fat diet (HFD) for 4 weeks.

[2] = test system: wild type mice fed on high fat diet (HFD); experiment: ApoB-48 and MTTP protein content in scrapped small intestine epithelium of HFD mice; type: in vivo; conditions: 25 μg/kg/day subcutaneous every other day for 4 weeks, vs untreated HFD mice
Method: The protein expression of microsomal triglyceride transfer protein (MTTP), an enzyme involved in ApoB-48 lipoprotein assembly, in protein extracts isolated from scrapped epithelium of whole small intestine of mice were evaluated. Densitometric analysis (optical density O.D., fold over Ctrl diet fed mice) of ApoB-48 (FIG. 11B) and MTTP ([…]) corrected by protein loading (vinculin) (FIG. 11A) was performed. Mice fed on HFD were treated with GHRH antagonist AVR-352 (Antago, 25 μg/kg/day, subcutaneous, every other day for 4 weeks).

[3] = test system: diet-induced obesity (DIO) C57BL/6 mice; experiment: Fasting triglyceride levels in diet-induced obesity (DIO) C57BL/6 mice; type: in vivo; conditions: HFD 24 weeks; 25 μg/kg/day subcutaneous for last 12 weeks; vs untreated HFD mice
Method: C57BL/6 mice, 12 weeks of age were fed on a normal control diet (CD) or diet supplemented with high levels of fat (HFD) for 12 weeks, before treatment with GHRH antagonist, AVR-352 (25 μg/kg/day, subcutaneous) or vehicle for 12 weeks. Total triglycerides in plasma (TG ELISA kit, MyBioSource) were measured.

[4] = test system: C57BL/6 wild type male mice fed on high fat diet (HFD); experiment: CLAMS (body weight gain, activity-ambient) in HFD mice treated with AVR-352; type: in vivo; conditions: HFD 12 weeks, then 25 μg/kg/day subcutaneous for 4 weeks, vs untreated HFD mice
Method: 8 to 10-Week old C57BL/6 wild type male mice were fed on a high fat diet (HFD) for 12-weeks. Mice were then treated with the GHRH antagonist AVR-352 (25 μg/kg/day, subcutaneous) or vehicle for 4-weeks. At the end of treatment, mice were placed individually in metabolic (CLAMS) system. Body weight was recorded at beginning of treatment and at time of CLAMS after 4-weeks of treatment with the GHRH antagonist AVR-352 or vehicle. Activity-ambient (counts/day) was also measured.

[5] = test system: human small intestine epithelial cells (hulECs); experiment: ApoB-48 secretion by huIEC loaded with oleic acid; type: cell-based
Method: FIG. 14 is a bar graph showing confluent monolayers of human small intestine epithelial cells (hulECs, ATCC) were cultured in 6-well plates and loaded or not with oleic acid after treatments. ApoB-48 was measured in culture supernatants. GHRH agonist JI-34 (1 μM, 1 h) impaired the actions of the GLP-1 receptor agonist exendin 4 (Ex-4, 10 nM, 2 h) on reducing the ApoB48 secretion upon loading hulEC with oleic acid (0.5 mM, 3 h). This effect was completely blunted by co-treatment of cells with the GHRH antagonist MIA-602 (1 μM, 1 h).
FIG. 15 is a bar graph showing confluent monolayers of human small intestine epithelial cells (hulECs, ATCC) were cultured in 6-well plates and loaded or not with oleic acid after treatments. ApoB-48 was measured in culture supernatants.
Confluent monolayers of human small intestine epithelial cells (hulECs, ATCC) were cultured in 6-well plates and were either loaded with oleic acid or not loaded with oleic acid after treatment. ApoB-48 was measured in culture supernatants (MyBioSource).

[6] = test system: STZ-rats; conditions: STZ-rats (T1D model); U.S. Pat. No. 10,201,588; cited from earlier work
[7] = test system: C57BL/6 male mice fed on high fat diet (HFD); experiment: CLAMS (food intake, body weight gain, activity-ambient, RER) in HFD mice treated with MIA-602; type: in vivo; conditions: HFD 24 weeks, 25 μg/kg/day subcutaneous for last 12 weeks
Method: 12-Week old C57BL/6 male mice were fed on a high fat diet (HFD) or control diet (CD) for 12-weeks. Mice fed on HFD were treated with the GHRH antagonist MIA-602 (25 μg/kg/day, subcutaneous) or vehicle for 12-weeks. At the end of treatment, mice were placed individually in metabolic (CLAMS) system and a) food intake, b) body weight gain, c) activity-ambient, and d) respiratory exchange ratio were measured.

[8] = test system: rat small intestine epithelial cells (IEC); conditions: U.S. Pat. No. 10,201,588; cited from earlier work
[9] = test system: db/db mice; experiment: Fasting plasma triglycerides, ApoB-48 and VLDL (ELISA) in db/db mice treated with MIA-602; type: in vivo; conditions: fasting state, 25 μg/kg/day subcutaneous every other day for 4 weeks, vs untreated db/db mice
Method: Obese 20-week old male diabetic (db/db) mice were treated with the GHRH antagonist MIA-602 (25 μg/kg/day, subcutaneous, every other day) or vehicle (untreated, n=6/group) for 4 weeks. Total triglycerides (mg/dl), ApoB-48-containing lipoproteins (ApoB-48, ng/ml), and very low density lipoprotein (VLDL, mg/dl) in plasma obtained from mice in the fasting state were measured by ELISA (MyBioSource).
Given the high incidence of T2D and obesity and its association with CVD, experiments were carried out to investigate whether GHRH receptor antagonist MIA-602 administered subcutaneous suppresses elevation of TRL in mice homozygous for the diabetes spontaneous mutation Leprdb-BKS db (db/db), a valid model of human T2D/obesity. Heterozygous for Leprdb were used as lean controls.
GHRH antagonist MIA-602 (25 μg/kg/day, subcutaneous, every other day), was given to a sub-group of 20 weeks old db/db mice for 4 weeks. FIGS. 2A-2C show the effect of the treatment with MIA-602 on triglycerides, ApoB-48, and very low density lipoprotein (VLDL) levels, respectively, in db/db mice.

[10] = test system: db/db mice; experiment: MTTP activity and ApoB-48 protein expression in jejunum protein extracts of db/db mice; type: in vivo; conditions: protein extracts from jejunum of db/db mice, 25 μg/kg/day s.c.
Method: Protein extracts were isolated from jejunum of diabetic (db/db) mice and lean control mice. Microsomal triglyceride transfer protein (MTTP) activity (pmole/μg protein/hour) was measured in protein extracts from diabetic (db/db) mice versus lean control mice treated or not with GHRH antagonist MIA-602. Further, ApoB-48 protein expression determined by densitometric analysis (optical density, O.D.) of ApoB-48 corrected by protein loading (vinculin) was also performed in protein extracts from diabetic (db/db) mice versus lean control mice treated or not with GHRH antagonist MIA-602.

[11] = test system: db/db mice; experiment: Fasting blood glucose, HbA1c and glucagon in db/db mice; type: in vivo; conditions: 25 μg/kg/day subcutaneous for 12 weeks, vs untreated db/db mice
Method: Male db/db mice, 12 weeks of age were treated with the GHRH antagonist MIA-602 (25 μg/kg/day, subcutaneous, n=6) or vehicle (untreated, n=6/group) for 12 weeks. Samples were obtained from tail bleeding to determine (A) Fasting blood glucose (AlphaTRAK), (B) HbA1c (Crystal Chem) and (C) Glucagon.

5FPhAC-Ada-Tyr-DArg-Asp-Ala-Ile-5FPhe-Thr-Ala-Har-Tyr(Me)-Arg-Lys-Val-Leu-Abu-Gln-Leu-Ser-Ala-Arg-Lys-Leu-Leu-Gln-Asp-Ile-Nle-DArg-Har-Ada-NH2 [AVR-352]
postprandial increase of triglyceride plasma levels [1]: significantly blunted
ApoB-48 protein content in small intestine epithelium [2]: significant reduction
MTTP protein content in small intestine epithelium [2]: without significantly affecting
fasting total triglycerides in plasma [3]: significantly reduced
daily activity-ambient, dark cycle ([4]; dark cycle): significantly higher
daily activity-ambient, light cycle ([4]; light cycle): no significant differences
body weight gain (%) [4]: significantly lower

GHRH: native growth hormone releasing hormone, the naturally occurring ligand of GHRH receptor (YADAIFTNSYRKVLGQLSARKLLQDIMSRQQGESNQERGARARL; ends and bridges not checked; UniProt P01286 32-75, looked up) [reference compound]
ApoB-48 released in the culture medium, different concentrations ([5]; different concentrations of native GHRH): increased levels of ApoB-48 were released in the culture medium in a dose-dependent manner

Tyr-Ala-Asp-Ala-Ile^5-Phe-Thr-Asn-Ser-Tyr^10-Arg-Lys-Val-Leu-Gly^15-Gln-Leu-Ser-Ala-Arg^20-Lys-Leu-Leu-Gln-Asp^25-Ile-Met-Ser-Arg^29-NH2 [MIA-602]
ApoB-48 lipoproteins in STZ-rats [6]: reduced
respiratory exchange ratio (RER) ([7]; vs non-treated mice): slightly but significantly lower
body weight gain ([7]; vs untreated HFD mice): significant reduction
daily activity-ambient ([7]; vs untreated HFD mice): significant increase
food intake ([7]; vs untreated HFD mice): No changes
ApoB-48 lipoproteins in rat IEC in vitro [8]: reduced
impaired signaling of Ex-4 in the presence of JI-34 (ApoB-48 secretion) ([5]; MIA-602 1 μM, 1 h co-treatment with JI-34 1 μM and Ex-4 10 nM): completely restored
ApoB-48-containing lipoproteins in plasma [9]: significantly reduced
total triglycerides in plasma [9]: significantly reduced
very low density lipoprotein (VLDL) in plasma [9]: significantly reduced
microsomal triglyceride transfer protein (MTTP) activity [10]: not associated with significant changes
ApoB-48 levels (densitometry, corrected by vinculin) ([10]; vs untreated): significantly lower levels
fasting blood glucose level [11]: modest but significant reduction
glucagon levels [11]: significant reduction
hemoglobin A1c (HbA1c) level [11]: modest but significant reduction
